1 compound from US20090030086A1, “ANTIMICROBIAL AGENTS” (priority 2005, published 2009) can be followed below.

Structures are written as SMILES. Converted amounts (≈) assume the structure as drawn.

The subject of one assay is P. acnes NCTC 737. Description: MBC assay. The assay is classed as cell-based, Propionibacterium acnes. The procedure, abridged:
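Plates were then checked visually for growth. The MBC is the lowest lethal concentration; cultures were grown on Wilkins-Chalgren Anaerobe Medium at pH 6.0.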

The test system of the next assay is P. acnes PPR-007. Description: Disc diffusion assay (DDA). In kind it is cell-based, Propionibacterium acnes. The note with it: resistance Clin, 200 μg per disc. The protocol: (§1) The Propionibacterium spp organisms were cultured and maintained on Wilkins-Chalgren Anaerobe Medium (agar and broth) at pH 6.0; cultures were incubated anaerobically at 37° C. for 72 hours.
(§2) A sterile paper disc was impregnated with a sample of the test compound and a minimum of 30 minutes allowed for the solvents to evaporate as far as possible. The disc was then placed on an agar plate onto which the test micro-organism had been inoculated. The plate was then incubated under the conditions described above, following which it was examined visually for signs of bacterial growth. If the test compound had antimicrobial activity, a circular zone of no growth would be obtained around the disc. The diameter of this zone of “inhibition” was measured using a ProtoCOL™ automated zone sizer (Synbiosis, Cambridge, UK). In general, a greater diameter and/or area of the zone of inhibition indicates a greater antimicrobial activity in the relevant test compound, although other factors such as test compound mobility through the agar gel may also influence the result.
(§3) The area of the zone of inhibition was calculated from the measured zone diameter (D) using the formula π(D/2)^2.
(§4) For the DDA assays, 200 μg of TBHQ was loaded onto each disc. The solvent used for the TBHQ was ethanol.

The next assay relates to P. acnes PRP-002. Description: Disc diffusion assay (DDA). The assay is classed as cell-based, Propionibacterium acnes. The note with it: resistance Tet/MLS, 200 μg per disc. As for the experimental part:
as §1, §2, §3, §4
On the technique in general: In agar diffusion tests the substance spreads into inoculated agar from a disc or well.

In the next assay the test system is P. acnes PRP-003. Description: Disc diffusion assay (DDA). The note with it: resistance Tet, 200 μg per disc. In kind it is cell-based, Propionibacterium acnes. The protocol:
as §1, §2, §3, §4

The subject of the next assay is P. acnes PRP-004. Description: Disc diffusion assay (DDA). The note with it: resistance Tet, 200 μg per disc. The assay is classed as cell-based, Propionibacterium acnes. As for the experimental part: as §1, §2, §3, §4
Another assay concerns P. acnes PRP-008. Description: Disc diffusion assay (DDA). The assay is classed as cell-based, Propionibacterium acnes. The note with it: resistance Clin, 200 μg per disc. As for the experimental part: as §1, §2, §3, §4
For the next assay, the system named is P. acnes PRP-017. Description: Disc diffusion assay (DDA). The assay is classed as cell-based, Propionibacterium acnes. The note with it: resistance MLS, 200 μg per disc. The protocol:
as §1, §2, §3, §4

A further assay has as its system P. acnes PRP-023. Description: Disc diffusion assay (DDA). In kind it is cell-based, Propionibacterium acnes. The note with it: resistance MLSK, 200 μg per disc. The protocol: as §1, §2, §3, §4
A further assay has as its system P. acnes PRP-026. Description: Disc diffusion assay (DDA). The assay is classed as cell-based, Propionibacterium acnes. The note with it: resistance MLS, 200 μg per disc. As for the experimental part:
as §1, §2, §3, §4

The next assay deals with P. acnes PRP-046. Description: Disc diffusion assay (DDA). In kind it is cell-based, Propionibacterium acnes. The note with it: resistance None, 200 μg per disc. The protocol: as §1, §2, §3, §4
The next assay concerns P. acnes PRP-053. Description: Disc diffusion assay (DDA). The assay is classed as cell-based, Propionibacterium acnes. The note with it: resistance Tet/MLS, 200 μg per disc. The protocol:
as §1, §2, §3, §4

In another assay the test system is P. acnes PRP-059. Description: Disc diffusion assay (DDA). The assay is classed as cell-based, Propionibacterium acnes. The note with it: resistance MLS, 200 μg per disc. As for the experimental part:
as §1, §2, §3, §4

A further assay has as its system P. acnes PRP-068. Description: Disc diffusion assay (DDA). The note with it: resistance Ery, 200 μg per disc. In kind it is cell-based, Propionibacterium acnes. The protocol: as §1, §2, §3, §4
In another assay the test system is P. acnes PRP-101. Description: Disc diffusion assay (DDA). In kind it is cell-based, Propionibacterium acnes. The note with it: resistance Tet/MLS, 200 μg per disc. As for the experimental part: as §1, §2, §3, §4
The subject of another assay is P. acnes PRP-102. Description: Disc diffusion assay (DDA). The assay is classed as cell-based, Propionibacterium acnes. The note with it: resistance Tet/MLS, 200 μg per disc. The protocol: as §1, §2, §3, §4
Another assay relates to P. granulosum PPR-006. Description: MIC assay. In kind it is cell-based. As for the experimental part:
as §1
This is a standard international method for quantitatively assessing the antimicrobial activity of a compound in a liquid medium. The method used a 96-well microtitre plate, capable of holding about 200 μl of liquid per well. […] The culture media were as described above for the relevant test organisms.
The wells were inoculated with a liquid suspension of freshly grown micro-organism and incubated under the conditions described above. After incubation, the microtitre plate was examined visually (with the aid of a light box) for cloudiness in each well, which would indicate microbial growth. The MIC value was recorded as the lowest concentration of test compound required to inhibit microbial growth, i.e., the lowest concentration for which the liquid in the well remained clear.
The assays were conducted in duplicate and included both negative (culture medium only) and positive (culture medium, diluting solvent and inoculum) controls.
The activity of TBHQ was tested against other Propionibacterium spp strains, including some with known antibiotic resistance. MIC, MBC and DDA assays were carried out as described above for each of the strains.

A further assay deals with H. influenzae ATCC 49247. Description: Disc diffusion assay (DDA). In kind it is cell-based, Haemophilus influenzae. The note with it: 200 μg per disc. The protocol: The H. influenzae strain was cultured and maintained on Haemophilus Test Medium (HTM) agar/broth (the composition of which is as described in NCCLS M7-A6 Vol. 23 No. 2); cultures were incubated in a CO2 atmosphere at 37° C. for 24 hours.
as §2, §3
The activity of TBHQ against three other bacterial strains was investigated using MIC, MBC and DDA assays as described above. […]

Assay [1] concerns S. pyogenes ATCC 12344. Description: MBC assay. In kind it is cell-based, Streptococcus pyogenes. As for the experimental part: (§5) The S. pyogenes strain was cultured and maintained on Mueller-Hinton agar with 5% v/v defibrinated horse blood, and grown in Mueller-Hinton broth supplemented with 5% lysed horse blood (lysed horse blood was prepared as described in the NCCLS M7-A6 Vol. 23 No. 2); cultures were incubated aerobically at 37° C. for 24 hours.
This assay, normally carried out after an MIC assay, determines the minimum concentration of a compound that is lethal to the micro-organism being tested.
These samples were then individually sub-cultured on non-selective agar medium, under the incubation conditions described above. Following incubation they were examined visually for bacterial growth.
The activity of TBHQ against three other bacterial strains was investigated using MIC, MBC and DDA assays as described above. For the DDA assays, 200 μg of TBHQ was loaded onto each disc, using ethanol as the solvent.

Assay [2] deals with S. pyogenes ATCC 12344. Description: Disc diffusion assay (DDA). The assay is classed as cell-based, Streptococcus pyogenes. The note with it: 200 μg per disc. The protocol:
as §5, §2
The area of the zone of inhibition was calculated from the measured zone diameter (D) using the formula π(D/2)^2. […]

On to `CC(C)(C)c1cc(O)ccc1O` [TBHQ, 2-t-butyl hydroquinone], for which the MIC/MBC ratio in the assay on P. acnes NCTC 737 (P. acnes NCTC 737) was found to be 0.5; in the assay on S. pyogenes ATCC 12344 [1], 1. Besides, the MBC (in general, the smallest concentration meeting the test's criterion for killing) is 15.6 µg/mL (≈ 93.9 µM) in the assay on P. acnes NCTC 737 (P. acnes NCTC 737 (Table 6), resistance None) and 62.5 to 125 µg/mL (≈ 376 to 752 µM) against S. pyogenes ATCC 12344 [1] (Streptococcus pyogenes, ATCC12344). Also, the DDA is 13.43 mm in the assay on P. acnes PPR-007; 28.42 mm in the assay with P. acnes PRP-002; 38.01 mm in the assay with P. acnes PRP-003; 30.32 mm in the assay on P. acnes PRP-004; 14.47 mm in the assay on P. acnes PRP-008; 18.40 mm in the assay on P. acnes PRP-017. Besides, the DDA with P. acnes PRP-023 is reported as 23.90 mm; with P. acnes PRP-026, 8.18 mm; with P. acnes PRP-046, 17.46 mm; in the assay on P. acnes PRP-053, 23.49 mm; in the assay on P. acnes PRP-059 it was 17.56 mm; in the assay on P. acnes PRP-068 it was 20.89 mm. Besides, the DDA is 0.0 mm in the assay with P. acnes PRP-101, 23.80 mm in the assay with P. acnes PRP-102, 36.33 mm in the assay on H. influenzae ATCC 49247 and 50.67 mm with S. pyogenes ATCC 12344 [2]. Besides, the lowest concentration to inhibit growth in the assay on P. granulosum PPR-006 (MIC) was 7.8 µg/mL (≈ 46.9 µM).
